# Organism: Rattus norvegicus
# Experiment: Open TG-GATES - Regimen: Daily Repeat
# Type: toxicity, organism-based, Sprague-Dawley
# Parameters: regimen Daily Repeat, gender Male, age 6 weeks
# Conditions: in vivo, po, 1 mg/kg, route gavage, dose level Low; for APTT / Bas / Eos / Fbg / Hb / Ht / Lym / MCH / MCHC / MCV / Mono / Neu / PT / Plat / RBC / Ret / WBC: tissue Blood; for KIDNEY_L / KIDNEY_R / KIDNEY_TOTAL: tissue Kidney; for LIVER: tissue Liver; for A/G / ALP / ALT / AST / BUN / CRE / Ca / Cl / DBIL / GLC / IP / K / LDH / Na / PL / RALB / TBIL / TC / TG / TP / gamma-GTP: tissue Plasma
structure (smiles),measurement,setting,value
O=NN(CCCl)C(=O)NC1CCCCC1 [LOMUSTINE],TERMINAL_BW,"72 h, time 3 day",228.6 g
same,APTT,"72 h, time 3 day",15.3 s
same,Bas,"72 h, time 3 day",0%
same,Eos,"72 h, time 3 day",0.8%
same,Fbg,"72 h, time 3 day",224.2 mg/dL
same,Hb,"72 h, time 3 day",12.9 g/dL
same,Ht,"72 h, time 3 day",38.5%
same,Lym,"72 h, time 3 day",81.2%
same,MCH,"72 h, time 3 day",21.6 pg
same,MCHC,"72 h, time 3 day",33.4%
same,MCV,"72 h, time 3 day",64.8 fL
same,Mono,"72 h, time 3 day",7.6%
same,Neu,"72 h, time 3 day",10.2%
same,PT,"72 h, time 3 day",11.8 s
same,Plat,"72 h, time 3 day",108.2 x10_4/uL
same,RBC,"72 h, time 3 day",594.4 x10_4/ul
same,Ret,"72 h, time 3 day",8.5%
same,WBC,"72 h, time 3 day",121.5 x10_2/uL
same,KIDNEY_L,"72 h, time 3 day",1.1 g
same,KIDNEY_R,"72 h, time 3 day",1.1 g
same,KIDNEY_TOTAL,"72 h, time 3 day",2.2 g
same,LIVER,"72 h, time 3 day",11.3 g
same,A/G,"72 h, time 3 day",2.2
same,ALP,"72 h, time 3 day",863 IU/L
same,ALT,"72 h, time 3 day",30 IU/L
same,AST,"72 h, time 3 day",62 IU/L
same,BUN,"72 h, time 3 day",16 mg/dL
same,CRE,"72 h, time 3 day",0.5 mg/dL
same,Ca,"72 h, time 3 day",11.1 mg/dL
same,Cl,"72 h, time 3 day",105 meq/L
same,DBIL,"72 h, time 3 day",0.022 mg/dL
same,GLC,"72 h, time 3 day",188 mg/dL
same,IP,"72 h, time 3 day",8.1 mg/dL
same,K,"72 h, time 3 day",4.9 meq/L
same,LDH,"72 h, time 3 day",78 IU/L
same,Na,"72 h, time 3 day",138.6 meq/L
same,PL,"72 h, time 3 day",144 mg/dL
same,RALB,"72 h, time 3 day",3.9 g/dL
same,TBIL,"72 h, time 3 day",0.3 mg/dL
same,TC,"72 h, time 3 day",79.2 mg/dL
same,TG,"72 h, time 3 day",85.8 mg/dL
same,TP,"72 h, time 3 day",5.7 g/dL
same,gamma-GTP,"72 h, time 3 day",1 IU/L
same,TERMINAL_BW,"[…], time 7 day",255.7 g
same,TERMINAL_BW,"[…], time 14 day",313 g
same,TERMINAL_BW,"[…], time 28 day",386.4 g
same,APTT,"[…], time 7 day",16.6 s
same,Bas,"[…], time 7 day",0%
same,Eos,"[…], time 7 day",0.6%
same,Fbg,"[…], time 7 day",235.2 mg/dL
same,Hb,"[…], time 7 day",13.3 g/dL
same,Ht,"[…], time 7 day",39.5%
same,Lym,"[…], time 7 day",80%
same,MCH,"[…], time 7 day",21.3 pg
same,MCHC,"[…], time 7 day",33.6%
same,MCV,"[…], time 7 day",63.6 fL
same,Mono,"[…], time 7 day",7.4%
same,Neu,"[…], time 7 day",12.4%
same,PT,"[…], time 7 day",11.7 s
same,Plat,"[…], time 7 day",109.6 x10_4/uL
same,RBC,"[…], time 7 day",621.2 x10_4/ul
same,Ret,"[…], time 7 day",6.3%
same,WBC,"[…], time 7 day",117.4 x10_2/uL
same,APTT,"[…], time 14 day",16.9 s
same,Bas,"[…], time 14 day",0%
same,Eos,"[…], time 14 day",0.6%
same,Fbg,"[…], time 14 day",235 mg/dL
same,Hb,"[…], time 14 day",13.9 g/dL
same,Ht,"[…], time 14 day",41.4%
same,Lym,"[…], time 14 day",83.4%
same,MCH,"[…], time 14 day",20.8 pg
same,MCHC,"[…], time 14 day",33.6%
same,MCV,"[…], time 14 day",61.9 fL
same,Mono,"[…], time 14 day",4.8%
same,Neu,"[…], time 14 day",11.4%
same,PT,"[…], time 14 day",11.5 s
same,Plat,"[…], time 14 day",119.3 x10_4/uL
same,RBC,"[…], time 14 day",669.6 x10_4/ul
same,Ret,"[…], time 14 day",5.5%
same,WBC,"[…], time 14 day",116.8 x10_2/uL
same,APTT,"[…], time 28 day",16.6 s
same,Bas,"[…], time 28 day",0%
same,Eos,"[…], time 28 day",1.2%
same,Fbg,"[…], time 28 day",225 mg/dL
same,Hb,"[…], time 28 day",15.1 g/dL
same,Ht,"[…], time 28 day",45.4%
same,Lym,"[…], time 28 day",82%
same,MCH,"[…], time 28 day",19 pg
same,MCHC,"[…], time 28 day",33.3%
same,MCV,"[…], time 28 day",57.1 fL
same,Mono,"[…], time 28 day",5.4%
same,Neu,"[…], time 28 day",11.8%
same,PT,"[…], time 28 day",11.6 s
same,Plat,"[…], time 28 day",109.6 x10_4/uL
same,RBC,"[…], time 28 day",797.4 x10_4/ul
same,Ret,"[…], time 28 day",2.6%
same,WBC,"[…], time 28 day",167.6 x10_2/uL
same,KIDNEY_L,"[…], time 7 day",1.2 g
same,KIDNEY_R,"[…], time 7 day",1.2 g
same,KIDNEY_TOTAL,"[…], time 7 day",2.3 g
same,KIDNEY_L,"[…], time 14 day",1.3 g
same,KIDNEY_R,"[…], time 14 day",1.2 g
same,KIDNEY_TOTAL,"[…], time 14 day",2.5 g
same,KIDNEY_L,"[…], time 28 day",1.3 g
same,KIDNEY_R,"[…], time 28 day",1.4 g
same,KIDNEY_TOTAL,"[…], time 28 day",2.7 g
same,LIVER,"[…], time 7 day",12.4 g
same,LIVER,"[…], time 14 day",14.7 g
same,LIVER,"[…], time 28 day",16.7 g
same,A/G,"[…], time 7 day",2
same,ALP,"[…], time 7 day",865.2 IU/L
same,ALT,"[…], time 7 day",35.2 IU/L
same,AST,"[…], time 7 day",61.6 IU/L
same,BUN,"[…], time 7 day",17.6 mg/dL
same,CRE,"[…], time 7 day",0.5 mg/dL
same,Ca,"[…], time 7 day",10.9 mg/dL
same,Cl,"[…], time 7 day",106 meq/L
same,DBIL,"[…], time 7 day",0.018 mg/dL
same,GLC,"[…], time 7 day",195.2 mg/dL
same,IP,"[…], time 7 day",7.5 mg/dL
same,K,"[…], time 7 day",4.8 meq/L
same,LDH,"[…], time 7 day",87.8 IU/L
same,Na,"[…], time 7 day",139.6 meq/L
same,PL,"[…], time 7 day",148.2 mg/dL
same,RALB,"[…], time 7 day",3.9 g/dL
same,TBIL,"[…], time 7 day",0.3 mg/dL
same,TC,"[…], time 7 day",79.2 mg/dL
same,TG,"[…], time 7 day",71.4 mg/dL
same,TP,"[…], time 7 day",5.9 g/dL
same,gamma-GTP,"[…], time 7 day",1.2 IU/L
same,A/G,"[…], time 14 day",2
same,ALP,"[…], time 14 day",821 IU/L
same,ALT,"[…], time 14 day",26.2 IU/L
same,AST,"[…], time 14 day",56.8 IU/L
same,BUN,"[…], time 14 day",19.2 mg/dL
same,CRE,"[…], time 14 day",0.5 mg/dL
same,Ca,"[…], time 14 day",11.3 mg/dL
same,Cl,"[…], time 14 day",106.6 meq/L
same,DBIL,"[…], time 14 day",0.01 mg/dL
same,GLC,"[…], time 14 day",184.4 mg/dL
same,IP,"[…], time 14 day",7.4 mg/dL
same,K,"[…], time 14 day",4.8 meq/L
same,LDH,"[…], time 14 day",84.6 IU/L
same,Na,"[…], time 14 day",139.8 meq/L
same,PL,"[…], time 14 day",175.2 mg/dL
same,RALB,"[…], time 14 day",4 g/dL
same,TBIL,"[…], time 14 day",0.3 mg/dL
same,TC,"[…], time 14 day",83.2 mg/dL
same,TG,"[…], time 14 day",141.4 mg/dL
same,TP,"[…], time 14 day",6.1 g/dL
same,gamma-GTP,"[…], time 14 day",1.8 IU/L
same,A/G,"[…], time 28 day",1.8
same,ALP,"[…], time 28 day",696.4 IU/L
same,ALT,"[…], time 28 day",52.8 IU/L
same,AST,"[…], time 28 day",103.6 IU/L
same,BUN,"[…], time 28 day",20.4 mg/dL
same,CRE,"[…], time 28 day",0.4 mg/dL
same,Ca,"[…], time 28 day",10.9 mg/dL
same,Cl,"[…], time 28 day",105.6 meq/L
same,DBIL,"[…], time 28 day",0.006 mg/dL
same,GLC,"[…], time 28 day",195.2 mg/dL
same,IP,"[…], time 28 day",6.5 mg/dL
same,K,"[…], time 28 day",4.5 meq/L
same,LDH,"[…], time 28 day",172.8 IU/L
same,Na,"[…], time 28 day",139.6 meq/L
same,PL,"[…], time 28 day",165.2 mg/dL
same,RALB,"[…], time 28 day",4.2 g/dL
same,TBIL,"[…], time 28 day",0.3 mg/dL
same,TC,"[…], time 28 day",78.6 mg/dL
same,TG,"[…], time 28 day",139.8 mg/dL
same,TP,"[…], time 28 day",6.5 g/dL
same,gamma-GTP,"[…], time 28 day",1.6 IU/L

# — ChEMBL document CHEMBL3885861, “Open TG-GATES”
